# Assays:
# [1] = system: STZ-induced diabetic mice; test: STZ-induced diabetic neuropathy mouse model, paw thermal withdrawal latency; type: in vivo; settings: STZ diabetic Swiss Webster mice, FIG. 3
# Description: To test a peptide in a diabetic neuropathy mouse model, male Swiss Webster mice are given a single injection of STZ (180 mg/kg i.p.) to induce insulin-deficient diabetes. Hyperglycemia is confirmed 3 days thereafter, and to ensure induction of sufficient neuropathy, only mice with blood glucose levels exceeding 15 mmol/l are used. […] The time from initiation of heating to paw withdrawal is recorded in 4 separate trials 5 minutes apart, with the median value of the last 3 trials used for each mouse. […]
# Briefly, male Swiss Webster mice were given a single injection of STZ (180 mg/kg i.p.) to induce insulin-deficient diabetes. […] The time from initiation of heating to paw withdrawal was recorded in 4 separate trials 5 minutes apart, with the median value of the last 3 trials used for each mouse.
# Akt = test: Activation of Akt phosphorylation in HUVECs (Western blot); type: cell-based; settings: HUVECs treated with peptide; Western blot anti-phospho-Akt / anti-Akt; FIG. 2
# Description: In one assay for the activation of AKT by phosphorylation, HUVECs are purchased from Cell Applications (San Diego, Calif.) and grown in medium EGM-2 supplemented with 2% fetal calf serum (FCS) and penicillin/streptomycin (P/S) at 37° C. under air containing 5% CO2 in a humidified incubator. Preliminary experiments can be performed to determine the time course of the phosphorylation of Akt following stimulation by compounds that activated the tissue protective receptor. In some assays, the phosphorylation of Akt reaches a maximum 10 minutes following stimulation by compounds that activated the tissue protective receptor. After HUVECs are treated with tissue protective peptides or controls, cell lysates are prepared and Western blot is performed using anti-Akt and anti-phospho-Akt antibodies (Cell Signaling Technology, Danvers, Mass.). To perform the Western blot, cell lysates are subjected to SDS-PAGE, and transferred to nitrocellulose membranes (Amersham Biosciences, Piscataway, N.J.). The membrane is blocked for 1 h at room temperature with PBS containing 2% BSA and 0.05% Tween 20. The blots are incubated overnight at 4° C. or for 4 h at room temperature with a primary antibody against phospho-Akt, followed by incubation for 1 h with a secondary, horseradish peroxidase-conjugated antibody. Then the blots are reprobed with an antibody against Akt to confirm equal protein loading. […]
substance,measurement,setting,value
GDKA (Tissue protective peptide),thermal threshold (thermal withdrawal latency),"[1]; eye drops 50 microliters of 50 nanomolar solution to both eyes five days/week, after 12 weeks of therapy",normal thermal threshold
same,thermal threshold compared with PBS-treated diabetic mice,"[1]; eye drops 50 nanomolar, five days/week, 12 weeks",significantly lower
same,activation of AKT (phosphorylation of Akt),Akt,activated AKT
